Test results taken from DBAASP.
Converted amounts (≈) assume the structure as drawn. Values belong to the compound of their own block, whether it stands above or below them.

Columns and labels:
Experiment in all cases: ≥ marks a high value that may be exact or a test limit, other limits are often not marked, values filed in µg/mL are converted to µM
[1] = system: Acinetobacter baumannii AB1MG
[2] = system: Acinetobacter baumannii AB7MG
[3] = system: Burkholderia cepacia SMC 71
[4] = system: Citrobacter freundii W99FI00007
[5] = system: Elizabethkingia meningoseptica CCUG 4310
[6] = system: Enterobacter cloacae W03AN0041
[7] = system: Escherichia coli ATCC 25922
Escherichia coli = system: Escherichia coli
[8] = system: Klebsiella aerogenes W03BG0067
[9] = system: Klebsiella oxytoca W99FI00049
Klebsiella pneumoniae = system: Klebsiella pneumoniae
[10] = system: Morganella morganii W03VA1342
[11] = system: Proteus mirabilis W03VA1144
[12] = system: Proteus mirabilis W99FI0089
[13] = system: Providencia stuartii W03FI0001
[14] = system: Pseudomonas aeruginosa 885149
[15] = system: Pseudomonas aeruginosa 891
[16] = system: Pseudomonas aeruginosa ATCC 27853
[17] = system: Pseudomonas aeruginosa VA463/98
[18] = system: Serratia marcescens W99FI0111
[19] = system: Staphylococcus aureus ATCC 25923
[20] = system: Staphylococcus aureus ATCC 29213
[21] = system: Staphylococcus aureus MIU-68A
[22] = system: Stenotrophomonas maltophilia PT4/99
Candida krusei ATCC 6258 = system: Candida krusei ATCC 6258
[23] = system: Enterococcus faecalis ATCC 29212
[24] = system: Escherichia coli ATCC 12795
[25] = system: Klebsiella pneumoniae ATCC 10031
[26] = system: Mannheimia haemolytica 82-25
[27] = system: Pseudomonas aeruginosa ATCC 27312
[28] = system: Serratia marcescens ATCC 14756
[29] = system: Bacillus subtilis CICC 24434
Escherichia coli E44813 = system: Escherichia coli E44813
[30] = system: Listeria monocytogenes CICC 21533
[31] = system: Pasteurella multocida C48-3
[32] = system: Salmonella enterica subsp. enterica serovar Choleraesuis C78-1
[33] = system: Salmonella typhimurium SL1344
[34] = system: Shigella flexneri CICC 21534
[35] = system: Staphylococcus epidermidis LY8
[36] = system: Bacillus subtilis ATCC 9372
[37] = system: Salmonella typhimurium ATCC 50013
[38] = system: Shigella dysenteriae ATCC 51302
[39] = system: Streptococcus pneumoniae ATCC 49619
[40] = system: Staphylococcus aureus SH1000
Escherichia coli TOP 10 = system: Escherichia coli TOP 10
[41] = system: Acinetobacter baumannii ATCC 19606
[42] = system: Escherichia coli D31 CGSC 5165
[43] = system: Pseudomonas aeruginosa ATCC 47085
[44] = system: Staphylococcus aureus ATCC 35556

Compound: CC[C@H](C)[C@H](NC(=O)[C@@H](NC(=O)[C@H](Cc1ccccc1)NC(=O)[C@H](CCCCN)NC(=O)[C@@H]1CCCN1C(=O)[C@H](CCCCN)NC(=O)[C@H](CCC(N)=O)NC(=O)[C@@H]1CCCN1C(=O)[C@H](CCCN=C(N)N)NC(=O)[C@H](CCCN=C(N)N)NC(=O)[C@@H](NC(=O)[C@H](CCCN=C(N)N)NC(=O)[C@H](Cc1c[nH]c2ccccc12)NC(=O)[C@H](CC(C)C)NC(=O)[C@H](CCCN=C(N)N)NC(=O)[C@H](CC(=O)O)NC(=O)[C@@H](NC(=O)[C@@H](NC(=O)[C@@H](N)CCCN=C(N)N)[C@@H](C)CC)[C@@H](C)CC)C(C)C)C(C)C)C(=O)N[C@H](C(=O)N[C@@H](Cc1c[nH]c2ccccc12)C(=O)N[C@H](C(=O)N[C@@H](CCCN=C(N)N)C(=O)O)C(C)C)C(C)C [RIIDRLWRVRRPQKPKFVIVWVR]
MIC [29]: 0.259 µM (≈ 0.78 µg/mL)
MIC (Escherichia coli E44813): 2.07 µM (≈ 6.25 µg/mL)
MIC [30]: 20.7 µM (≈ 62.5 µg/mL)
MIC [31]: 0.259 µM (≈ 0.78 µg/mL)
MIC [32]: 0.129 µM (≈ 0.39 µg/mL)
MIC [33]: 0.259 µM (≈ 0.78 µg/mL)
MIC [34]: 24.9 µM (≈ 75 µg/mL)
MIC [19]: 0.0041 µM (≈ 0.0124 µg/mL)
MIC [35]: 4.14 µM (≈ 12.5 µg/mL)

Compound: CC[C@H](C)[C@H](NC(=O)[C@H](CC(=O)O)NC(=O)[C@H](Cc1ccccc1)NC(=O)[C@H](CC(C)C)NC(=O)CN)C(=O)N[C@H](C(=O)N[C@@H](CCCCN)C(=O)N[C@@H](CCCCN)C(=O)N[C@@H](CC(C)C)C(=O)N[C@@H](CC(C)C)C(=O)N[C@@H](CCCCN)C(=O)N[C@@H](CC(C)C)C(=O)N[C@@H](CC(C)C)C(=O)N[C@@H](CCCCN)C(N)=O)C(C)C [GLFDIVKKLLKLLK]
MIC [40]: ≥ 100 µM

Compound: CC[C@H](C)[C@H](NC(=O)[C@H](CCCCN)NC(=O)CNC(=O)[C@H](CC(C)C)NC(=O)[C@@H](NC(=O)[C@H](C)NC(=O)[C@H](CCCCN)NC(=O)CNC(=O)[C@H](C)NC(=O)CNC(=O)[C@H](CCCCN)NC(=O)[C@H](CCSC)NC(=O)[C@H](CCCCN)NC(=O)[C@@H](NC(=O)[C@H](Cc1c[nH]c2ccccc12)NC(=O)[C@H](CC(C)C)NC(=O)[C@H](CCC(N)=O)NC(=O)[C@H](CCCCN)NC(=O)[C@H](CC(C)C)NC(=O)[C@@H](N)CC(C)C)[C@@H](C)O)C(C)C)C(=O)N[C@@H](CCCCN)C(=O)NCC(=O)N[C@@H](CC(C)C)C(=O)N[C@@H](CC(C)C)C(=O)O [LLKQLWTKMKGAGKAVLGKIKGLL]
MIC [41]: 0.94 µM (≈ 2.44 µg/mL)
MIC [42]: 0.94 µM (≈ 2.44 µg/mL)
MIC [43]: 7.5 µM (≈ 19.5 µg/mL)
MIC [44]: 1.88 µM (≈ 4.88 µg/mL)

Continued, in another order:

MIC [1]: 13.4 µM (≈ 16 µg/mL)
MIC [2]: 26.7 µM (≈ 32 µg/mL)
MIC [3]: ≥ 53.4 µM
MIC [4]: 13.4 µM (≈ 16 µg/mL)
MIC [5]: ≥ 107 µM
MIC [6]: 3.34 µM (≈ 4 µg/mL)
MIC [7]: 3.34 µM (≈ 4 µg/mL)
MIC (Escherichia coli): 6.68 µM (≈ 8 µg/mL)
MIC [8]: 6.68 µM (≈ 8 µg/mL)
MIC [9]: ≥ 53.4 µM
MIC (Klebsiella pneumoniae): 6.68 µM (≈ 8 µg/mL)
MIC [10]: ≥ 107 µM
MIC [11]: ≥ 53.4 µM
MIC [12]: ≥ 107 µM
MIC [13]: ≥ 107 µM
MIC [14]: 6.68 µM (≈ 8 µg/mL)
MIC [15]: 6.68 µM (≈ 8 µg/mL)
MIC [16]: 3.34 µM (≈ 4 µg/mL)
MIC [17]: 3.34 µM (≈ 4 µg/mL)
MIC [18]: ≥ 107 µM
MIC [19]: > 107 µM
MIC [20]: > 53.4 µM
MIC [21]: ≥ 107 µM
MIC [22]: ≥ 107 µM
Compound: CC[C@H](C)[C@H](NC(=O)[C@H](CCCCN)NC(=O)[C@H](CCCCN)NC(=O)[C@@H](N)CCC(N)=O)C(=O)N[C@@H](CCCN=C(N)N)C(=O)N[C@H](C(=O)N[C@@H](CCCN=C(N)N)C(=O)N[C@@H](CC(C)C)C(=O)N[C@@H](CO)C(=O)N[C@@H](C)C(=O)O)C(C)C [QKKIRVRLSA]

MIC (Candida krusei ATCC 6258): ≥ 2770 µM
MIC [23]: 2670 µM (≈ 1880 µg/mL)
MIC [24]: ≥ 900 µM
MIC [25]: ≥ 850 µM
MIC [27]: ≥ 1500 µM
MIC [28]: ≥ 3000 µM
MIC [20]: 1080 µM (≈ 762 µg/mL)
Compound: CC(C)[C@H](N)C(=O)N[C@@H](CC(=O)O)C(=O)N[C@@H](CC(=O)O)C(=O)N[C@@H](CC(=O)O)C(=O)N[C@@H](CC(=O)O)C(=O)N[C@@H](CCCCN)C(=O)O [VDDDDK]
MIC [26]: ≥ 160 µM

MIC [36]: 8.21 µM (≈ 8 µg/mL)
MIC [7]: 8.21 µM (≈ 8 µg/mL)
MIC [16]: 8.21 µM (≈ 8 µg/mL)
MIC [37]: 16.4 µM (≈ 16 µg/mL)
MIC [38]: 16.4 µM (≈ 16 µg/mL)
MIC [19]: 65.7 µM (≈ 64 µg/mL)
MIC [39]: 16.4 µM (≈ 16 µg/mL)
Compound: CC(C)C[C@H](NC(=O)[C@@H](NC(=O)CNC(=O)[C@H](C)NC(=O)[C@H](CC(C)C)NC(=O)[C@H](CS)NC(=O)[C@H](CCCN=C(N)N)NC(=O)[C@H](C)NC(=O)[C@H](CC(C)C)NC(=O)CN)[C@@H](C)O)C(=O)O [GLARCLAGTL]

MIC (Escherichia coli TOP 10): ≥ 63 µM
Compound: CC(C)C[C@H](NC(=O)[C@@H](N)[C@@H](C)O)C(=O)N1CCC[C@H]1C(=O)N[C@@H](CCC(=O)O)C(=O)N[C@@H](Cc1c[nH]c2ccccc12)C(=O)N[C@@H](CC(=O)O)C(=O)N[C@@H](CC(=O)O)C(=O)N[C@@H](CCCN=C(N)N)C(=O)N[C@@H](CCCN=C(N)N)C(=O)N[C@H](C(=O)N[C@H](C(=O)N[C@@H](CC(N)=O)C(=O)N[C@@H](CO)C(N)=O)C(C)C)C(C)C [TLPEWDDRRVVNS]
